Assay results published in patent US10508120B2, “TYK2 inhibitors and uses thereof” (Nimbus Lakshmi, Inc., priority 2017, dated 2019).

Assays:
[1] = target: human TYK2 (JH2domain-pseudokinase) (Homo sapiens (Human), UniProt P29597); test: TYK2 JH2 Domain Binding Assay (KINOMEscan)
Summary of the method: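 Kds, run in duplicate, came from Hill fits (slope fixed at −1) of an 11-point 3-fold dilution series starting at 30,000 nM. Bead-retained TYK2 JH2 (aa G556–D888)–NFkB DBD fusion, DNA-tagged and expressed in HEK293 cells, was read by qPCR after 1 h room-temperature binding in 0.9% DMSO.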

[2] = target: Tyk2 kinase domain (DH1) (Homo sapiens (Human), UniProt P29597); test: Tyk2 Radioactive Kinase Assay; type: biochemical; conditions: compound at 10 μM, ATP 10 μM; for inhibition at 10 µM: read-out: Tyk2 JH1% Inhibition @ 10 μM
Chain of Tyk2 kinase domain (DH1) (P29597 897-1176): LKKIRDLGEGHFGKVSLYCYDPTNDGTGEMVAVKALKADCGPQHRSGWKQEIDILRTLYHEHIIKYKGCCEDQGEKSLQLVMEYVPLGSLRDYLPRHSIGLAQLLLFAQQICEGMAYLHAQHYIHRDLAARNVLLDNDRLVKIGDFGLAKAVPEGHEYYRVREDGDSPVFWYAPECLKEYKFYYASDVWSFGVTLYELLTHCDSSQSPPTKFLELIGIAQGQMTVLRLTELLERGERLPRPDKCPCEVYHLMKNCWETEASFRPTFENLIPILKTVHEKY
Summary of the method: (§1)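 Each kinase domain is incubated with test compound at 10 μM. Activity is then measured radiometrically and expressed as percent inhibition relative to uninhibited enzyme.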

[3] = target: JAK2 kinase domain (JH1) (Homo sapiens (Human), UniProt O60674); test: JAK2 Radioactive Kinase Assay; type: biochemical; conditions: compound at 10 μM, ATP 10 μM; for inhibition at 10 µM: read-out: JAK2 JH1% Inhibition @ 10 μM
Chain of JAK2 kinase domain (JH1) (O60674 849-1124): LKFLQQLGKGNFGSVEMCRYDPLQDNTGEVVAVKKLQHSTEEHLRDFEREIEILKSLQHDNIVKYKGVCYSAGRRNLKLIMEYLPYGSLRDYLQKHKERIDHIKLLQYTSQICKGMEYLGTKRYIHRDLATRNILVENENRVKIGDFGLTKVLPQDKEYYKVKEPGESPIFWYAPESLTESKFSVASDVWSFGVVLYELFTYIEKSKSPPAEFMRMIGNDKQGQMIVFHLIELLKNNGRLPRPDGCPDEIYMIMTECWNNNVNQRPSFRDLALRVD
Summary of the method: as §1

[4] = target: Tyk2/JAK2 (heterodimeric complex) (Homo sapiens (Human), UniProt P29597); test: IL-12 Induced pSTAT4 in Human PBMC; type: cell-based; conditions: 1.7 ng/mL IL-12
Chain of Tyk2/JAK2 (heterodimeric complex) (P29597 whole entry, other chains not shown): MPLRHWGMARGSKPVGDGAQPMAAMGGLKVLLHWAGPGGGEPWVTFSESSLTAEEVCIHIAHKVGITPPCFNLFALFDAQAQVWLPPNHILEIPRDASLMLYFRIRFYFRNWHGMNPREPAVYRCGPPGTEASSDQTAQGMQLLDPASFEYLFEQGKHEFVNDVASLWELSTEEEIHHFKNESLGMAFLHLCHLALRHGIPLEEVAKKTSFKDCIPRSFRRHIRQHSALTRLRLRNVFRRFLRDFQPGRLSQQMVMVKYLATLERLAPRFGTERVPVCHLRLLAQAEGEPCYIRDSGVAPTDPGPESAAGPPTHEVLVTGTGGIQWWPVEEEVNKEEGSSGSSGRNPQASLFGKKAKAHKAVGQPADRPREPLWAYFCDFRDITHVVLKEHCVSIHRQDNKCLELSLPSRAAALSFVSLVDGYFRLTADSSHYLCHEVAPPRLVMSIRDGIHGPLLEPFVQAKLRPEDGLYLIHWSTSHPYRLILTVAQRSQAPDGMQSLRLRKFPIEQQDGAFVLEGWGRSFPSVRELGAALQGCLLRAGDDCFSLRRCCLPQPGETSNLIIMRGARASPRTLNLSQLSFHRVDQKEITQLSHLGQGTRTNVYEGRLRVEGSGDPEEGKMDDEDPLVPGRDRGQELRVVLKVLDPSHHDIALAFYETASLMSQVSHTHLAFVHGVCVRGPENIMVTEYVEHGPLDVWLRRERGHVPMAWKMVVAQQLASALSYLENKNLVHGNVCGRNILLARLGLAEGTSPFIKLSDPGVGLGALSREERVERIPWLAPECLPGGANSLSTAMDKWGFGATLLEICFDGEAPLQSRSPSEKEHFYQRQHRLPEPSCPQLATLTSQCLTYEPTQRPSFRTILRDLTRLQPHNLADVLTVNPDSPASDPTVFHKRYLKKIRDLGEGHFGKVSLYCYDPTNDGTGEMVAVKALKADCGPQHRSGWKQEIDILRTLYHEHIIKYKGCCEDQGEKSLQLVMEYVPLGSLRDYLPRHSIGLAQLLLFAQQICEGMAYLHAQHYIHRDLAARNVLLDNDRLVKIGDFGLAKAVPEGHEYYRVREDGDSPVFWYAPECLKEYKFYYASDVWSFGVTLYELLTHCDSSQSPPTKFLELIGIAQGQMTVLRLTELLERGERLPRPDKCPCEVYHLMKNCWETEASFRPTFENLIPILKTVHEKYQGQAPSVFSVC
Source text: The IL-12 Induced pSTAT4 assay evaluates the inhibition of IL-12 induced STAT4 phophorylation mediated by Tyk2/JAK2 (heterodimeric complex).

[5] = target: JAK2/JAK2 homdimeric complex (Homo sapiens (Human), UniProt O60674); test: GM-CSF Induced pSTAT5 in Human PBMC; type: cell-based; conditions: GM-CSF 5 ng/mL for 20 minutes, pSTAT5 by MSD, read-out: PBMC_GMCSF_pSTAT5 IC50
Chain of JAK2/JAK2 homdimeric complex (O60674 whole entry): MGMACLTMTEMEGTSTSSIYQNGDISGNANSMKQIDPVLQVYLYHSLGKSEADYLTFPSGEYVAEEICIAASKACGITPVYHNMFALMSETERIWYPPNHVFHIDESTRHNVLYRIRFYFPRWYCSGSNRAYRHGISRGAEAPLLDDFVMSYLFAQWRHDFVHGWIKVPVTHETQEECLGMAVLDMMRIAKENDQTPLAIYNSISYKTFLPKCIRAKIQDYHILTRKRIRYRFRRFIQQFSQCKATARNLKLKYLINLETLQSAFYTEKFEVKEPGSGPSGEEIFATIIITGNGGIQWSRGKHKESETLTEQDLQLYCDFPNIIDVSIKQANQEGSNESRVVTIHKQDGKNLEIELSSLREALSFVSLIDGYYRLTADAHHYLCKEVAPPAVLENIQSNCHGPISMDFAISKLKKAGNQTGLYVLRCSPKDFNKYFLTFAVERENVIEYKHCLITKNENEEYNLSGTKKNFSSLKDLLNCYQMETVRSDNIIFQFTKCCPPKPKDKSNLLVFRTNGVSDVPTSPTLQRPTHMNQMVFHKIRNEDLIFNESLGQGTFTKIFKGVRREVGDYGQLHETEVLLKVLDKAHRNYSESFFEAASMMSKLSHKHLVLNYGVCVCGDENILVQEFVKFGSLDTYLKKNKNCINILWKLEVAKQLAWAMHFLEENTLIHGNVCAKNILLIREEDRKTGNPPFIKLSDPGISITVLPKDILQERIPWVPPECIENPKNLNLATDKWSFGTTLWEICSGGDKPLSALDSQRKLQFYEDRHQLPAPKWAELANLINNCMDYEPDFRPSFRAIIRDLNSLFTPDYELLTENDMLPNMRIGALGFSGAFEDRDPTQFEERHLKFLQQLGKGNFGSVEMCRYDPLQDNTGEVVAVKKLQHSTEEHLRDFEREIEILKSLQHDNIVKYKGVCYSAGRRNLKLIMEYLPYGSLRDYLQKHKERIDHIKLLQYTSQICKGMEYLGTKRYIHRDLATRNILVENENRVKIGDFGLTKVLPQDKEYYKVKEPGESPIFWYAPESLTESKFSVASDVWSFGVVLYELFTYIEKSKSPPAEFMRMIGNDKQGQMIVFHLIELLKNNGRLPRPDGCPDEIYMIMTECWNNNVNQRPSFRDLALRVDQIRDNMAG
Chain of JAK2/JAK2 homdimeric complex (P32927 17-897 partner): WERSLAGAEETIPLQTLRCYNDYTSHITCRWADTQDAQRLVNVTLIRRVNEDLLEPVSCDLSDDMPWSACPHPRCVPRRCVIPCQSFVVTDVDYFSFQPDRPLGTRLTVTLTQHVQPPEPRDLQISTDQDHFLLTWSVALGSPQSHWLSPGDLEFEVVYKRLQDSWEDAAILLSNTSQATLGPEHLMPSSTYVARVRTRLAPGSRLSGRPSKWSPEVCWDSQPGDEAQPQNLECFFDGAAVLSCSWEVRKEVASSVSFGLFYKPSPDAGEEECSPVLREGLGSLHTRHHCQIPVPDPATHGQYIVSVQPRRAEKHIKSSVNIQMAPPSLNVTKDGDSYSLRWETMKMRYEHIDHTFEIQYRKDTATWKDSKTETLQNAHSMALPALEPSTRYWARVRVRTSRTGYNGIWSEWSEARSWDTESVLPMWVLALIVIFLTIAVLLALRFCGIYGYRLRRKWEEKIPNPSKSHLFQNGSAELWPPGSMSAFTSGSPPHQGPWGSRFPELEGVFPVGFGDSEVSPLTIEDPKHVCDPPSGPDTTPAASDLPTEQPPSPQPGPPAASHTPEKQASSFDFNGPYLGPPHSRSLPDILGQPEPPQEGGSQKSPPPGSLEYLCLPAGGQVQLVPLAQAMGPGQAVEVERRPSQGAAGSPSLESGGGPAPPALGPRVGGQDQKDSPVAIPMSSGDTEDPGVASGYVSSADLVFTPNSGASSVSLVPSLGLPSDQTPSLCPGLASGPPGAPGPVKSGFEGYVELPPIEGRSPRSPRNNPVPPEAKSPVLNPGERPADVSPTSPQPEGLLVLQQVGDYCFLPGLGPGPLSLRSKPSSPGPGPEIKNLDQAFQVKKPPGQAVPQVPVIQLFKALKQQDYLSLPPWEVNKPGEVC

Chain of human TYK2 (JH2domain-pseudokinase) (P29597 556-888): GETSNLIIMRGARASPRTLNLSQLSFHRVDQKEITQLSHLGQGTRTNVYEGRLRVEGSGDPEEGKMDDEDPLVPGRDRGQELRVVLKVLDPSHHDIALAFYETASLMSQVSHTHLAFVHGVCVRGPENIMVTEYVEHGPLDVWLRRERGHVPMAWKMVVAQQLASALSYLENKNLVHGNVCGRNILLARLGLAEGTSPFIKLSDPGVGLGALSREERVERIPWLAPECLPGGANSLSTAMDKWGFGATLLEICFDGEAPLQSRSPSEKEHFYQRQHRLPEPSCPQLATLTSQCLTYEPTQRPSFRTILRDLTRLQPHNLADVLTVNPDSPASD

CNc1cc(Nc2cc(F)cn(-c3ccn(C)n3)c2=O)nc2c(C(=O)NC3CC3)cnn12 [I-378]
Kd [1]: < 0.2 nM | inhibition at 10 µM [2]: < 50% | inhibition at 10 µM [3]: < 50% | IC50 [4]: < 100 nM | IC50 [5]: > 12500 nM

CNc1cc(Nc2cc(F)cn(-c3ccn(C)n3)c2=O)nc2c(C(=O)N[C@H]3C[C@H]3F)cnn12 [I-379]
Kd [1]: < 0.2 nM | inhibition at 10 µM [2]: < 50% | inhibition at 10 µM [3]: < 50% | IC50 [4]: < 100 nM | IC50 [5]: > 2500 nM

CNc1cc(Nc2cc(F)cn(-c3cnn(C)c3)c2=O)nc2c(C(=O)NC3CC3)cnn12 [I-380]
Kd [1]: < 0.2 nM | inhibition at 10 µM [2]: < 50% | inhibition at 10 µM [3]: < 50% | IC50 [4]: < 100 nM | IC50 [5]: > 12500 nM

CNc1cc(Nc2cc(F)cn(-c3cnn(C)c3)c2=O)nc2c(C(=O)N[C@H]3C[C@H]3F)cnn12 [I-381]
Kd [1]: < 0.2 nM | inhibition at 10 µM [2]: < 50% | inhibition at 10 µM [3]: < 50% | IC50 [4]: < 100 nM | IC50 [5]: > 12500 nM

CNc1cc(Nc2cc(F)cn(-c3cc(C)n(C)n3)c2=O)nc2c(C(=O)NC3CC3)cnn12 [I-384]
Kd [1]: < 0.2 nM | inhibition at 10 µM [2]: < 50% | inhibition at 10 µM [3]: < 50% | IC50 [4]: < 100 nM | IC50 [5]: > 300 nM

CNc1cc(Nc2cc(F)cn(-c3cc(C)n(C)n3)c2=O)nc2c(C(=O)N[C@H]3C[C@H]3F)cnn12 [I-385]
Kd [1]: < 0.2 nM | inhibition at 10 µM [2]: < 50% | inhibition at 10 µM [3]: < 50% | IC50 [4]: < 100 nM | IC50 [5]: > 2500 nM

CNc1cc(Nc2cccn(-c3nc(C)co3)c2=O)nc2c(C(=O)NC3CCC3)cnn12 [I-386]
Kd [1]: < 0.2 nM | inhibition at 10 µM [2]: < 50% | inhibition at 10 µM [3]: < 50% | IC50 [4]: < 100 nM | IC50 [5]: > 50000 nM

CNc1cc(Nc2cccnc2OC)nc2c(C(=O)NC3CCC3O)cnn12 (stereo not drawn) [I-390, N-(2-hydroxycyclobutyl)-5-((2-methoxypyridin-3-yl)amino)-7-(methylamino) pyrazolo[1,5-a]pyrimidine-3-carboxamide]
Kd [1]: < 0.2 nM | inhibition at 10 µM [2]: < 50% | inhibition at 10 µM [3]: < 50% | IC50 [4]: < 100 nM | IC50 [5]: > 50000 nM

CNc1cc(Nc2cccnc2OC2CC2)nc2c(C(=O)NC3CCC3O)cnn12 (stereo not drawn) [I-392, 5-((2-cyclopropoxypyridin-3-yl)amino)-N-(2-hydroxycyclobutyl)-7-(methylamino)pyrazolo[1,5-a]pyrimidine-3-carboxamide]
Kd [1]: < 0.2 nM | inhibition at 10 µM [2]: < 50% | inhibition at 10 µM [3]: < 50% | IC50 [4]: < 100 nM | IC50 [5]: > 50000 nM

CNc1cc(Nc2cccn(C3CCC4(CC3)OCCO4)c2=O)nc2c(C(=O)NC3CC3)cnn12 [I-393]
Kd [1]: < 0.2 nM | inhibition at 10 µM [2]: < 50% | inhibition at 10 µM [3]: < 50% | IC50 [4]: < 100 nM | IC50 [5]: > 12500 nM

CNc1cc(Nc2cccnc2OC)nc2c(C(=O)N[C@H]3CC[C@@H]3O)cnn12 [I-395]
Kd [1]: < 0.2 nM | Tyk2 JH1% Inhibition @ 10 μM [2]: A (percent inhibition at 10 μM lower than 50) | JAK2 JH1% Inhibition @ 10 μM [3]: A (percent inhibition at 10 μM lower than 50) | IC50 [4]: < 100 nM | IC50 [5]: > 12500 nM

CNc1cc(Nc2cccnc2OC)nc2c(C(=O)N[C@@H]3CC[C@H]3O)cnn12 [I-396]
Kd [1]: < 0.2 nM | inhibition at 10 µM [2]: < 50% | inhibition at 10 µM [3]: < 50% | IC50 [4]: < 100 nM | IC50 [5]: > 50000 nM

CNc1cc(Nc2cccnc2OC2CC2)nc2c(C(=O)N[C@@H]3CC[C@@H]3O)cnn12 [I-401]
Kd [1]: < 0.2 nM | inhibition at 10 µM [2]: < 50% | inhibition at 10 µM [3]: < 50% | IC50 [4]: < 100 nM | IC50 [5]: > 12500 nM

CNc1cc(Nc2cccn(-c3cnn(CC4CCOCC4)c3)c2=O)nc2c(C(=O)NC3CC3)cnn12 [I-406]
Kd [1]: < 0.2 nM | inhibition at 10 µM [2]: < 50% | inhibition at 10 µM [3]: < 50% | IC50 [4]: 100 to 500 nM | IC50 [5]: > 12500 nM

CNc1cc(Nc2cccn(-c3cnn(CC4CCOCC4)c3)c2=O)nc2c(C(=O)N[C@H]3C[C@H]3F)cnn12 [I-407]
Kd [1]: < 0.2 nM | inhibition at 10 µM [2]: < 50% | inhibition at 10 µM [3]: < 50% | IC50 [4]: < 100 nM | IC50 [5]: > 12500 nM

CCONC(=O)c1cnn2c(NC)cc(Nc3cccnc3OC)nc12 [I-409, N-ethoxy-5-((2-methoxypyridin-3-yl)amino)-7-(methylamino)pyrazolo[1,5-a]pyrimidine-3-carboxamide]
Kd [1]: < 0.2 nM | inhibition at 10 µM [2]: < 50% | inhibition at 10 µM [3]: < 50% | IC50 [4]: < 100 nM | IC50 [5]: > 12500 nM

[2H]C([2H])([2H])Oc1ncccc1Nc1cc(NC)n2ncc(C(=O)N[C@@H]3CC[C@H]3O)c2n1 [I-410]
Kd [1]: < 0.2 nM | inhibition at 10 µM [2]: < 50% | inhibition at 10 µM [3]: 50 to 70% | IC50 [4]: < 100 nM | IC50 [5]: > 12500 nM

[2H]C([2H])([2H])Oc1ncccc1Nc1cc(NC)n2ncc(C(=O)N[C@H]3CC[C@@H]3O)c2n1 [I-411]
Kd [1]: < 0.2 nM | Tyk2 JH1% Inhibition @ 10 μM [2]: A (percent inhibition at 10 μM lower than 50) | JAK2 JH1% Inhibition @ 10 μM [3]: A (percent inhibition at 10 μM lower than 50) | IC50 [4]: < 100 nM | IC50 [5]: > 50000 nM

CNc1cc(Nc2cccn(C[C@@H]3CCCCO3)c2=O)nc2c(C(=O)NC3CC3)cnn12 [I-413]
Kd [1]: < 0.2 nM | inhibition at 10 µM [2]: < 50% | inhibition at 10 µM [3]: < 50% | IC50 [4]: < 100 nM | IC50 [5]: > 50000 nM

CNc1cc(Nc2cccn(C3CCC4(CC3)OCCO4)c2=O)nc2c(C(=O)N[C@@H]3C[C@@H]3F)cnn12 [I-415, N-((1R,2S)-2-fluorocyclopropyl)-7-(methylamino)-5-((2-oxo-1-(1,4-dioxaspiro 14.51 decan-8-yl)-1,2-dihydropyridin-3-yl)amino)pyrazolo[1,5-a]pyrimidine-3-carboxamide]
Kd [1]: < 0.2 nM | inhibition at 10 µM [2]: < 50% | inhibition at 10 µM [3]: < 50% | IC50 [4]: < 100 nM | IC50 [5]: > 50000 nM

CNc1cc(Nc2cccnc2OC)nc2c(C(=O)N[C@@H]3CCC[C@H]3O)cnn12 [I-423, N-((1R,2R)-2-hydroxycyclopentyl)-5-((2-methoxypyridin-3-yl)amino)-7-(methylamino)pyrazolo[1,5-a]pyrimidine-3-carboxamide]
Kd [1]: < 0.2 nM | inhibition at 10 µM [2]: < 50% | inhibition at 10 µM [3]: < 50% | IC50 [4]: < 100 nM | IC50 [5]: > 50000 nM

CNc1cc(Nc2cccnc2OC)nc2c(C(=O)NCC3(CO)CC3)cnn12 [I-425]
Kd [1]: < 0.2 nM | inhibition at 10 µM [2]: < 50% | inhibition at 10 µM [3]: < 50% | IC50 [4]: < 100 nM | IC50 [5]: > 50000 nM

CNc1cc(Nc2cccnc2OC2CC2)nc2c(C(=O)NCC3(CO)CC3)cnn12 [I-426]
Kd [1]: < 0.2 nM | inhibition at 10 µM [2]: < 50% | inhibition at 10 µM [3]: < 50% | IC50 [4]: < 100 nM | IC50 [5]: > 50000 nM

CNc1cc(Nc2cccn(C[C@@H]3CCCCO3)c2=O)nc2c(C(=O)N[C@@H]3C[C@@H]3F)cnn12 [I-428]
Kd [1]: < 0.2 nM | inhibition at 10 µM [2]: < 50% | inhibition at 10 µM [3]: < 50% | IC50 [4]: < 100 nM | IC50 [5]: > 50000 nM

CNc1cc(Nc2cccnc2OC)nc2c(C(=O)N[C@H]3CC[C@H]3O)cnn12 [I-429]
Kd [1]: < 0.2 nM | inhibition at 10 µM [2]: < 50% | inhibition at 10 µM [3]: < 50% | IC50 [4]: < 100 nM | IC50 [5]: > 50000 nM

CNc1cc(Nc2cccnc2OC2CC2)nc2c(C(=O)NCC(C)CO)cnn12 (stereo not drawn) [I-435]
Kd [1]: < 0.2 nM | inhibition at 10 µM [2]: < 50% | inhibition at 10 µM [3]: < 50% | IC50 [4]: 100 to 500 nM | IC50 [5]: > 50000 nM

CNc1cc(Nc2cccnc2OC)nc2c(C(=O)N[C@H]3C[C@@H]3O)cnn12 [I-438, N-((1S,2S)-2-hydroxycyclopropyl)-5-((2-methoxypyridin-3-yl)amino)-7-(methylamino)pyrazolo[1,5-a]pyrimidine-3-carboxamide]
Kd [1]: < 0.2 nM | inhibition at 10 µM [2]: < 50% | inhibition at 10 µM [3]: < 50% | IC50 [4]: < 100 nM | IC50 [5]: > 50000 nM

CNc1cc(Nc2cccn([C@@H]3CCCOC3)c2=O)nc2c(C(=O)N[C@@H]3C[C@@H]3F)cnn12 [I-474]
Kd [1]: < 0.2 nM | inhibition at 10 µM [2]: < 50% | inhibition at 10 µM [3]: < 50% | IC50 [4]: < 100 nM | IC50 [5]: > 12500 nM

CNc1cc(Nc2cccnc2OC)nc2c(C(=O)NC[C@H](C)CO)cnn12 [I-483]
Kd [1]: < 0.2 nM | inhibition at 10 µM [2]: < 50% | inhibition at 10 µM [3]: < 50% | IC50 [4]: < 100 nM | IC50 [5]: > 50000 nM

[2H]C([2H])([2H])Oc1ncccc1Nc1cc(NC)n2ncc(C(=O)N[C@@H]3CCC[C@@H](O)C3)c2n1 [I-499]
Kd [1]: < 0.2 nM | inhibition at 10 µM [2]: < 50% | inhibition at 10 µM [3]: < 50% | IC50 [4]: < 100 nM | IC50 [5]: > 50000 nM

[2H]C([2H])([2H])Oc1ncccc1Nc1cc(NC)n2ncc(C(=O)N[C@H]3CC[C@H](O)C3)c2n1 [I-500]
Kd [1]: < 0.2 nM | Tyk2 JH1% Inhibition @ 10 μM [2]: A (percent inhibition at 10 μM lower than 50) | JAK2 JH1% Inhibition @ 10 μM [3]: A (percent inhibition at 10 μM lower than 50) | IC50 [4]: < 100 nM | IC50 [5]: > 50000 nM

CNc1cc(Nc2cccn(-c3ncccc3F)c2=O)nc2c(C(=O)NCC(C)(C)CO)cnn12 [I-510]
Kd [1]: < 0.2 nM | inhibition at 10 µM [2]: < 50% | inhibition at 10 µM [3]: < 50% | IC50 [4]: < 100 nM | IC50 [5]: > 50000 nM

CNc1cc(Nc2cccn([C@H]3CC[C@H](OC)CC3)c2=O)nc2c(C(=O)N[C@H]3CC[C@H]3O)cnn12 [I-539]
Kd [1]: < 0.2 nM | inhibition at 10 µM [2]: < 50% | inhibition at 10 µM [3]: < 50% | IC50 [4]: < 100 nM | IC50 [5]: > 50000 nM
